Test results reported in ChEMBL document CHEMBL5365461, “Degradation of Cyclin-Dependent Kinase 9/Cyclin T1 by Optimized Microtubule-Associated Protein 1 Light Chain 3 Beta-Recruiting Coumarin Analogs” (J Med Chem, 2023).
The source made the active and inactive calls. No cut-off for these calls is given here.

What was measured:
[1] = target: Cyclin-dependent kinase 9 (Homo sapiens) (UniProt P50750); assay: (§1) Inhibition of GST-fused human full-length CDK9 (1 to 372(end) residues)/N-terminal GST-fused His-tagged human full-length CyclinT1 (1 to 726(end) residues) expressed in baculovirus expression system at 10 nM using CDK7/9 tide as substrate incubated for 120 mins in presence of ATP by ADP-Glo Kinase assay relative to control
Sequence of Cyclin-dependent kinase 9 (Homo sapiens) (P50750 whole entry, the tested form may be a part): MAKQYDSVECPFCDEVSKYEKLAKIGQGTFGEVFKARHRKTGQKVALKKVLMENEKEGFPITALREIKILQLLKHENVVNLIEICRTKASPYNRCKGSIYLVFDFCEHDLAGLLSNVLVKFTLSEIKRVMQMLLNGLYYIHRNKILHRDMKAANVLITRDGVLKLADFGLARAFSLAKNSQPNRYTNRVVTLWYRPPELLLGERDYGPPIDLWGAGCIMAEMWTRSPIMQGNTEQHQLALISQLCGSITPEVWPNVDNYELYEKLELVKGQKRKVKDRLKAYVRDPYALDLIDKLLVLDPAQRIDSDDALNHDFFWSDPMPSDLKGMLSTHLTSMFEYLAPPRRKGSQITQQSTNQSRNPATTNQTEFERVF

[2] = target: Cyclin-dependent kinase 9 (Homo sapiens) (UniProt P50750); assay: as §1, with “100” for “10”
U2932 [3] = assay: Cytotoxicity against human U2932 cells assessed as inhibition of cell growth measured after 72 hrs by CCK-8 assay; type: functional, cell-based; details: U2932, 72 h
[4] = target: CDK9/cyclin T1 (Homo sapiens) (UniProt O60563+P50750); assay: Induction of CDK9/CyclinT1 degradation in human U2932 cells at 100 nM measured after 24 hrs by immunoblotting analysis; type: cell-based
U2932 [5] = assay: Induction of apoptosis in human U2932 cells assessed as viable cells at 1000 nM incubated for 24 hrs by AnnexinV-FITC/PI staining based flow cytometry analysis (reference value: 86.9%); type: functional; details: read-out: Activity
U2932 [6] = assay: Induction of apoptosis in human U2932 cells assessed as early apoptotic cells at 1000 nM incubated for 24 hrs by AnnexinV-FITC/PI staining based flow cytometry analysis (reference value: 6.20%); type: functional
U2932 [7] = assay: Induction of apoptosis in human U2932 cells assessed as late apoptotic cells at 1000 nM incubated for 24 hrs by AnnexinV-FITC/PI staining based flow cytometry analysis (reference value: 5.95%); type: functional
U2932 [8] = assay: Induction of apoptosis in human U2932 cells assessed as necrotic cells at 1000 nM incubated for 24 hrs by AnnexinV-FITC/PI staining based flow cytometry analysis (reference value: 0.92%); type: functional

SMILES | inhibition [1] | inhibition [2] | Activity [4] | IC50 (U2932 [3]) | viability at 1 µM (U2932 [5]) | Activity (U2932 [6]) | Activity (U2932 [7]) | Activity (U2932 [8])
Cc1cc(=O)oc2cc(O)cc(OCCCN3CCC(C(=O)Nc4ncc(SCc5ncc(C(C)(C)C)o5)s4)CC3)c12 | – | 55% | Active | 157 nM | – | – | – | –
CC(C)(C)c1cnc(CSc2cnc(NC(=O)C3CCN(CCCOc4cc(O)c5c(-c6ccncc6)cc(=O)oc5c4)CC3)s2)o1 | 15% | 69% | Active | 192 nM | – | – | – | –
Cc1cc(=O)oc2cc(O)cc(OCCN3CCC(C(=O)Nc4ncc(SCc5ncc(C(C)(C)C)o5)s4)CC3)c12 | 23% | 73% | – | 424 nM | – | – | – | –
CC(C)(C)c1cnc(CSc2cnc(NC(=O)C3CCN(CCCOc4ccc5c(-c6ccccc6)cc(=O)oc5c4)CC3)s2)o1 | 6% | 69% | – | 320 nM | – | – | – | –
CC(C)(C)c1cnc(CSc2cnc(NC(=O)C3CCN(CCCOc4cc(O)cc5oc(=O)cc(-c6ccc(F)cc6)c45)CC3)s2)o1 | – | 68% | – | 346 nM | – | – | – | –
COc1ccc(-c2cc(=O)oc3cc(OCCCN4CCC(C(=O)Nc5ncc(SCc6ncc(C(C)(C)C)o6)s5)CC4)cc(O)c23)cc1 | 33% | 83% | Active | 104 nM | – | – | – | –
CC(C)(C)c1cnc(CSc2cnc(NC(=O)C3CCN(CCCOc4cccc5oc(=O)cc(-c6ccccc6)c45)CC3)s2)o1 | -8% | 36% | – | 534 nM | – | – | – | –
COc1ccc(-c2cc(=O)oc3cc(O)cc(OCCCN4CCC(C(=O)Nc5ncc(SCc6ncc(C(C)(C)C)o6)s5)CC4)c23)cc1 | -5% | 61% | – | 604 nM | – | – | – | –
Cc1cc(=O)oc2cc(O)cc(OCCCCN3CCC(C(=O)Nc4ncc(SCc5ncc(C(C)(C)C)o5)s4)CC3)c12 | 9% | 79% | – | 142 nM | – | – | – | –
CC(C)(C)c1cnc(CSc2cnc(NC(=O)C3CCN(CCCOc4cc(O)cc5oc(=O)cc(-c6ccncc6)c45)CC3)s2)o1 | – | 55% | – | 484 nM | – | – | – | –

More lines, main results first:

inhibition [1] | inhibition [2] | Activity [4] | SMILES | IC50 (U2932 [3]) | viability at 1 µM (U2932 [5]) | Activity (U2932 [6]) | Activity (U2932 [7]) | Activity (U2932 [8])
-8% | 51% | – | CC(C)(C)c1cnc(CSc2cnc(NC(=O)C3CCN(CCCOc4cc(O)cc5oc(=O)cc(-c6ccccc6)c45)CC3)s2)o1 | 624 nM | – | – | – | –
26% | 73% | – | Cc1cc(=O)oc2cc(OCCCCN3CCC(C(=O)Nc4ncc(SCc5ncc(C(C)(C)C)o5)s4)CC3)cc(O)c12 | 133 nM | – | – | – | –
4% | 39% | Active | CC(C)(C)c1cnc(CSc2cnc(NC(=O)C3CCN(CC(=O)NCCOCCOCCOCCNc4cccc5c4C(=O)N(C4CCC(=O)NC4=O)C5=O)CC3)s2)o1 (centres undefined) | 306 nM | 67.2% | 8.93% | 22.3% | 1.55%
2% | 57% | – | Cc1cc(=O)oc2cc(OCCCCCN3CCC(C(=O)Nc4ncc(SCc5ncc(C(C)(C)C)o5)s4)CC3)cc(O)c12 | 98 nM | – | – | – | –
45% | 78% | Active | CC(C)(C)c1cnc(CSc2cnc(NC(=O)C3CCN(CCCOc4cc(O)c5ccc(=O)oc5c4)CC3)s2)o1 | 157 nM | – | – | – | –
5% | 63% | – | Cc1cc(=O)oc2cc(O)cc(OCCOCCN3CCC(C(=O)Nc4ncc(SCc5ncc(C(C)(C)C)o5)s4)CC3)c12 | 180 nM | – | – | – | –
-3% | 52% | Active | CC(C)(C)c1cnc(CSc2cnc(NC(=O)C3CCN(CCCOc4cc(O)cc5oc(=O)ccc45)CC3)s2)o1 | 125 nM | – | – | – | –
28% | 71% | – | Cc1cc(=O)oc2cc(OCCOCCN3CCC(C(=O)Nc4ncc(SCc5ncc(C(C)(C)C)o5)s4)CC3)cc(O)c12 | 145 nM | – | – | – | –
-4% | 86% | Active | CC(C)(C)c1cnc(CSc2cnc(NC(=O)C3CCN(CCCOc4cc(O)c5c(-c6ccccc6)cc(=O)oc5c4)CC3)s2)o1 | 120 nM | – | – | – | –
– | 80% | Active | CC(C)(C)c1cnc(CSc2cnc(NC(=O)C3CCN(CCCOc4cc(O)c5c(-c6ccc(F)cc6)cc(=O)oc5c4)CC3)s2)o1 | 124 nM | – | – | – | –
37% | 69% | – | Cc1cc(=O)oc2cc(OCCN3CCC(C(=O)Nc4ncc(SCc5ncc(C(C)(C)C)o5)s4)CC3)cc(O)c12 | 155 nM | – | – | – | –
24% | 83% | – | CC(C)(C)c1cnc(CSc2cnc(NC(=O)C3CCN(CCCCCOc4cc(O)cc5oc(=O)ccc45)CC3)s2)o1 | 109 nM | – | – | – | –
